IC50 data for four compounds are collected here from ChEMBL document CHEMBL1201861, “Genomics of Drug Sensitity in Cancer screening data, Wellcome Trust Sanger Institute”.

As usually defined, the IC50 is the midpoint of a concentration-inhibition curve.

Values joined by “and” are separate entries in the source; they are usually repeats but may differ in a detail not shown here. Equal values may be shown once. Where a SMILES comes first, the peptide text is derived from it. The star is where a group is joined. Cbz = O=C(OCc1ccccc1)* Where only a bound is given, the exact number is not on record here.

Holding throughout (assay): cells
Experiment [1] deals with EC-GI-10. The experiment is classed as functional, cell-based, Homo sapiens.
Description: SANGER: Inhibition of human EC-GI-10 cell growth in a cell viability assay.
Experiment [2] deals with HC-1. The experiment is classed as functional, cell-based, Homo sapiens.
Description: SANGER: Inhibition of human HC-1 cell growth in a cell viability assay.
Experiment [3] has as its system HCC1599. The experiment is classed as functional, cell-based, Homo sapiens.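 Further: growth inhibition of HCC1599 cells, read out in a cell viability assay.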
Description: SANGER: Inhibition of human HCC1599 cell growth in a cell viability assay.
Experiment [4] has as its system HCC 2998. The experiment is classed as functional, cell-based. To be noted: Homo sapiens.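 Further: growth inhibition of human HCC2998 cells, measured with a cell viability read-out.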
Description: SANGER: Inhibition of human HCC2998 cell growth in a cell viability assay.
The subject of experiment [5] is KMOE-2. In kind it is functional, cell-based, Homo sapiens.
Description: SANGER: Inhibition of human KMOE-2 cell growth in a cell viability assay.
Experiment [6] deals with LU-165. In kind it is functional, cell-based, Homo sapiens.
Description: SANGER: Inhibition of human LU-165 cell growth in a cell viability assay.
In experiment [7] the test system is NB17. In kind it is functional, cell-based, Homo sapiens.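 Further: growth inhibition of NB17 cells, read out with a cell viability assay.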
Description: SANGER: Inhibition of human NB17 cell growth in a cell viability assay.
The test system of experiment [8] is NCI-H1694. The experiment is classed as functional, cell-based, Homo sapiens.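 Further: cell viability assay measuring inhibition of growth in human NCI-H1694 cells.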
Description: SANGER: Inhibition of human NCI-H1694 cell growth in a cell viability assay.
Experiment [9] deals with NCI-H187. The experiment is classed as functional, cell-based, Homo sapiens.
Description: SANGER: Inhibition of human NCI-H187 cell growth in a cell viability assay.
The test system of experiment [10] is NCI-H2081. The experiment is classed as functional, cell-based, Homo sapiens.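 Further: growth inhibition of human NCI-H2081 cells, read out with a cell viability assay.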
Description: SANGER: Inhibition of human NCI-H2081 cell growth in a cell viability assay.
Experiment [11] has as its system NCI-H2196. In kind it is functional, cell-based, Homo sapiens. To be noted: read-out: IC50.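 Further: cell viability assay used as the readout of growth inhibition in NCI-H2196 cells.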
Description: SANGER: Inhibition of human NCI-H2196 cell growth in a cell viability assay.
Experiment [12] relates to NCI-H510A. In kind it is functional, cell-based, Homo sapiens.
Description: SANGER: Inhibition of human NCI-H510A cell growth in a cell viability assay.
For experiment [13], the system named is NCI-H524. The experiment is classed as functional, cell-based, Homo sapiens.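 Further: growth inhibition of human NCI-H524 cells, read out through a cell viability assay.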
Description: SANGER: Inhibition of human NCI-H524 cell growth in a cell viability assay.
Experiment [14] concerns NCI-H716. The experiment is classed as functional, cell-based, Homo sapiens.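 Further: growth inhibition of human NCI-H716 cells, measured by a cell viability assay.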
Description: SANGER: Inhibition of human NCI-H716 cell growth in a cell viability assay.
For experiment [15], the system named is SNU-16. In kind it is functional, cell-based, Homo sapiens.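 Further: growth inhibition of human SNU-16 cells, determined with a cell viability readout.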
Description: SANGER: Inhibition of human NCI-SNU-16 cell growth in a cell viability assay.
The test system of experiment [16] is RL95-2. In kind it is functional, cell-based, Homo sapiens.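 Further: RL95-2 growth inhibition determined through a cell viability readout.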
Description: SANGER: Inhibition of human RL95-2 cell growth in a cell viability assay.
Experiment [17] concerns ARH-77. The experiment is classed as functional, cell-based, Homo sapiens.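 Further: growth inhibition of ARH-77 cells, read out by a cell viability assay.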
Description: SANGER: Inhibition of human ARH-77 cell growth in a cell viability assay.
The subject of experiment [18] is CAL-148. In kind it is functional, cell-based, Homo sapiens.
Description: SANGER: Inhibition of human CAL-148 cell growth in a cell viability assay.

In the case of `CC(C)C[C@H](NC(=O)[C@H](Cc1ccccc1)NC(=O)c1cnccn1)B(O)O` [BORTEZOMIB], the IC50 in [1] (Homo sapiens, EC-GI-10) was above 20 nM; in experiment [2] (Homo sapiens, HC-1), 0.975 nM; in experiment [3] (Homo sapiens, HCC1599), 11.9 nM; in [4], 0.412 nM; in experiment [5] (Homo sapiens, KMOE-2), 2.23 nM; in [6] (Homo sapiens, LU-165), above 20 nM. The IC50 was 2.04 nM in [7] (Homo sapiens, NB17); 7.58 nM in [8] (Homo sapiens, NCI-H1694); above 20 nM in experiment [9] (Homo sapiens, NCI-H187); 10.1 nM in [10] (Homo sapiens, NCI-H2081); 6.8 nM in [11] (Homo sapiens, NCI-H2196); above 20 nM in experiment [12] (Homo sapiens, NCI-H510A). Further, the IC50 in experiment [13] (Homo sapiens, NCI-H524) is above 20 nM; in experiment [14] (Homo sapiens, NCI-H716) it was above 20 nM; in experiment [15] (Homo sapiens, SNU-16), 7.65 nM; in [16] (Homo sapiens, RL95-2) it was 3.79 nM; in experiment [17] (Homo sapiens, ARH-77) it was 2.38 nM; in experiment [18] (Homo sapiens, CAL-148), above 20 nM.

With `Nc1ccccc1NC(=O)c1ccc(CNC(=O)OCc2cccnc2)cc1` [ENTINOSTAT], the IC50 is above 5000 nM in experiment [1] (Homo sapiens, EC-GI-10); 505 nM in experiment [2] (Homo sapiens, HC-1); 516 nM in [3] (Homo sapiens, HCC1599); 784 nM in [4]; 2880 nM in [5] (Homo sapiens, KMOE-2); 618 nM in experiment [6] (Homo sapiens, LU-165). In addition, the half-maximal inhibitory concentration (IC50) in experiment [7] (Homo sapiens, NB17) was 544 nM; in experiment [8] (Homo sapiens, NCI-H1694), 4130 nM; in experiment [9] (Homo sapiens, NCI-H187), 492 nM; in experiment [10] (Homo sapiens, NCI-H2081), above 5000 nM; in experiment [11] (Homo sapiens, NCI-H2196), 4060 nM; in experiment [12] (Homo sapiens, NCI-H510A), 2050 nM. Moreover, the 50% inhibitory concentration (IC50) was 554 nM in experiment [13] (Homo sapiens, NCI-H524); above 5000 nM in [14] (Homo sapiens, NCI-H716); above 5000 nM in experiment [15] (Homo sapiens, SNU-16); 2110 nM in experiment [16] (Homo sapiens, RL95-2); 382 nM in experiment [17] (Homo sapiens, ARH-77); 1330 nM in experiment [18] (Homo sapiens, CAL-148).

For `CC(C)C[C@@H](C=O)NC(=O)[C@H](CC(C)C)NC(=O)[C@H](CC(C)C)NC(=O)OCc1ccccc1` [MG-132] (Cbz-Leu-Leu-Leu-aldehyde), the half-maximal inhibitory concentration (IC50) in [1] (Homo sapiens, EC-GI-10) is above 1000 nM; in experiment [1] (ec-gi-10) it was above 1000 nM; in [2] (hc-1), above 1000 nM; in experiment [3] (hcc1599), above 1000 nM; in experiment [4] it was 939 nM; in experiment [5] (Homo sapiens, KMOE-2), above 1000 nM. Besides, the IC50 in experiment [5] (kmoe-2) was above 1000 nM; in experiment [6] (lu-165), above 1000 nM; in experiment [7] (nb17), 430 nM and > 1000 nM; in [8] (Homo sapiens, NCI-H1694), above 1000 nM; in [8] (nci-h1694), above 1000 nM; in experiment [9] (nci-h187), above 1000 nM. Further, the IC50 is above 1000 nM in experiment [10] (nci-h2081); above 1000 nM in experiment [11] (Homo sapiens, NCI-H2196); above 1000 nM in [11] (nci-h2196); above 1000 nM in experiment [12] (Homo sapiens, NCI-H510A); above 1000 nM in experiment [12] (nci-h510a); above 1000 nM in experiment [13] (Homo sapiens, NCI-H524). Besides, the concentration for half-maximal inhibition (IC50) in experiment [13] (nci-h524) is above 1000 nM; in experiment [14] (nci-h716), above 1000 nM; in [15] (Homo sapiens, SNU-16), above 1000 nM; in [15] (snu-16), above 1000 nM; in experiment [16] (rl95-2) it was above 1000 nM; in [17] (arh-77), above 1000 nM. For the same compound, the IC50 in [18] (cal-148) was above 1000 nM.

With `COc1cc(N2CCC(N3CCN(C)CC3)CC2)ccc1Nc1ncc(Cl)c(Nc2ccccc2S(=O)(=O)C(C)C)n1` [TAE-684], the half-inhibitory concentration (IC50) in [1] (Homo sapiens, EC-GI-10) is above 2000 nM; in experiment [2] (Homo sapiens, HC-1), above 2000 nM; in [3] (Homo sapiens, HCC1599), above 2000 nM; in [5] (Homo sapiens, KMOE-2), above 2000 nM; in experiment [6] (Homo sapiens, LU-165), above 2000 nM; in [7] (Homo sapiens, NB17), 1010 nM. For the same compound, the IC50 was above 2000 nM in experiment [8] (Homo sapiens, NCI-H1694); 1700 nM in [9] (Homo sapiens, NCI-H187); above 2000 nM in experiment [10] (Homo sapiens, NCI-H2081); above 2000 nM in experiment [11] (Homo sapiens, NCI-H2196); above 2000 nM in [12] (Homo sapiens, NCI-H510A); 1640 nM in experiment [13] (Homo sapiens, NCI-H524). The concentration for half-maximal inhibition (IC50) is 1070 nM in experiment [14] (Homo sapiens, NCI-H716); 727 nM in [15] (Homo sapiens, SNU-16); 501 nM in [16] (Homo sapiens, RL95-2); above 2000 nM in [17] (Homo sapiens, ARH-77); above 2000 nM in experiment [18] (Homo sapiens, CAL-148).
